Reference: patent US9801956B2, “PSMA-targeted NIR dyes and their uses” (On Target Laboratories, LLC, priority 2015, dated 2017)

Target: T1, PSMA (Homo sapiens, UniProt Q04609)
T1 construct: PSMA-positive 22Rv1 human prostate cancer cells; endogenous in cells; host or cells: 22Rv1 human prostate cancer cells
Experiment: Relative binding affinity of DUPA-NIR conjugates versus 100 nM DUPA-FITC (14) on PSMA-positive 22Rv1 human prostate cancer cells, flow cytometry
Details: PSMA-positive 22Rv1 cells, 1 h at 37° C., 100 nM DUPA-FITC competitor
Protocol: (§1) FIG. 3—Relative binding affinities of DUPA-NIR conjugates 1-9 with respect to DUPA-FITC (14). PSMA-positive 22Rv1 human prostate cancer cells were incubated for 1 h at 37° C. in the presence of 100 nM DUPA-FITC with increasing concentrations of DUPA-NIR conjugates. […] Cell bound fluorescence was assayed as using flow cytometry.
as §1, with “6—Relative” for “3—Relative”, “with aromatic amino acids linkers” for “1-9”
as §1, with “14—Relative” for “3—Relative”, “conjugates” for “conjugates 1-9”
PSMA-positive 22Rv1 human prostate cancer cells were incubated for 1 h at 37° C. in the presence of 100 nM DUPA-FITC with increasing concentrations of DUPA-NIR conjugates. […] Cell bound fluorescence was assayed as using flow cytometry.
FIG. 23—Relative binding affinities of DUPA-NIR conjugates with respect to DUPA-FITC (14). […] Cell bound fluorescence was assayed as using flow cytometry.
FIG. 31—Relative binding affinities of DUPA-NIR conjugates with respect to DUPA-FITC (14). […] Cell bound fluorescence was assayed as using flow cytometry.
FIG. 36—Relative binding affinities of PSMA-targeted NIR conjugates with respect to DUPA-FITC (14). […] Cell bound fluorescence was assayed as using flow cytometry.
FIG. 3 Relative binding affinities of DUPA-NIR conjugates 1-9 with respect to DUPA-FITC (14). […] Cell bound fluorescence was assayed as using flow cytometry.
FIG. 24: Relative binding affinities of DUPA-NIR conjugates with respect to DUPA-FITC (14). […] Cell bound fluorescence was assayed as using flow cytometry. […]

T1 sequence (Q04609 whole entry): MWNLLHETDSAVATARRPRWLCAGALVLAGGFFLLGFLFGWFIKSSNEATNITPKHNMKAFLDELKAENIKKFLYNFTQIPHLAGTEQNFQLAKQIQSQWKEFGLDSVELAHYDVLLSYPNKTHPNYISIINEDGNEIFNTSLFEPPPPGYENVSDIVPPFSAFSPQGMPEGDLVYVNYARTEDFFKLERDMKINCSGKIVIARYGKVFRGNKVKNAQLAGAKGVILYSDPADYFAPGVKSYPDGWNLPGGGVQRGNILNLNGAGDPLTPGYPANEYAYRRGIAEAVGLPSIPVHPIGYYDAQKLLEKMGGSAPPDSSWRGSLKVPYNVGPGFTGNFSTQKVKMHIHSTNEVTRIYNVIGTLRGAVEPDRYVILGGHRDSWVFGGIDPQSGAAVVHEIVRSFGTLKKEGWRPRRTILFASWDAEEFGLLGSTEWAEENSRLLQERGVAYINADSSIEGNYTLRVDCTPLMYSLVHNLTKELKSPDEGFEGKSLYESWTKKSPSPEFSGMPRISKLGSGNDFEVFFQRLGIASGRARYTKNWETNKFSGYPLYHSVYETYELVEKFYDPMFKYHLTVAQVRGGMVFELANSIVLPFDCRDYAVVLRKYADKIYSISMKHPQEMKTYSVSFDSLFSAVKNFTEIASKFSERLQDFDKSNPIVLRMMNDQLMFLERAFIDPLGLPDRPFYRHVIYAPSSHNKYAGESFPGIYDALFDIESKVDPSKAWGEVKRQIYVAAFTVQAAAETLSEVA

Kd	Compound
319 nM	CC1(C)C(=CC=C2CCCC(C=CC3=[N+](CCCCS(=O)(=O)[O-])c4ccccc4C3(C)C)=C2SCC(NC(=O)C(Cc2ccccc2)NC(=O)C(Cc2ccccc2)NC(=O)CCCCCCCNC(=O)CCC(NC(=O)NC(CCC(=O)O)C(=O)O)C(=O)O)C(=O)O)N(CCCCS(=O)(=O)O)c2ccccc21 (stereo not drawn) [Compound 64]
141 nM	CC1(C)C(=CC=C2CCOC(C=CC3=[N+](CCCCS(=O)(=O)[O-])c4ccc(S(=O)(=O)O)cc4C3(C)C)=C2c2ccc(C(=O)NCCNC(=O)C(Cc3ccccc3)NC(=O)CCCCCCCNC(=O)CCC(NC(=O)NC(CCC(=O)O)C(=O)O)C(=O)O)cc2)N(CCCCS(=O)(=O)O)c2ccc(S(=O)(=O)O)cc21 (stereo not drawn) [Compound 62]
983 nM	CC1(C)C(=CC=C2CCCC(C=CC3=[N+](CCCCS(=O)(=O)[O-])c4ccccc4C3(C)C)=C2Oc2ccc(CC(NC(=O)C(CCCNC(=N)N)NC(=O)C(Cc3ccccc3)NC(=O)CCCCCCCNC(=O)CCC(NC(=O)NC(CCC(=O)O)C(=O)O)C(=O)O)C(=O)O)cc2)N(CCCCS(=O)(=O)O)c2ccccc21 (stereo not drawn) [Compound 65]
